Assay results as given in the kinase profiling compilation of Christmann-Franck et al. (2016).

What was measured:
Conditions in all cases: compound 10.0 µM
RPS6KA4 KD1 KD2 (human) = RPS6KA4 KD1 KD2 (human) (UniProt O75676)
PAK2 (human) = PAK2 (human) (UniProt Q13177)
STK3 (human) = STK3 (human) (UniProt Q13188)
AURKC (human) = AURKC (human) (UniProt Q9UQB9)
KDR (human) = KDR (human) (UniProt P35968)
CDK1 CCNB1 (human) = CDK1 CCNB1 (human) (UniProt P06493+P14635)
MKNK1 (human) = MKNK1 (human) (UniProt Q9BUB5)
Chain of MKNK1 (human) (Q9BUB5 whole entry, looked up): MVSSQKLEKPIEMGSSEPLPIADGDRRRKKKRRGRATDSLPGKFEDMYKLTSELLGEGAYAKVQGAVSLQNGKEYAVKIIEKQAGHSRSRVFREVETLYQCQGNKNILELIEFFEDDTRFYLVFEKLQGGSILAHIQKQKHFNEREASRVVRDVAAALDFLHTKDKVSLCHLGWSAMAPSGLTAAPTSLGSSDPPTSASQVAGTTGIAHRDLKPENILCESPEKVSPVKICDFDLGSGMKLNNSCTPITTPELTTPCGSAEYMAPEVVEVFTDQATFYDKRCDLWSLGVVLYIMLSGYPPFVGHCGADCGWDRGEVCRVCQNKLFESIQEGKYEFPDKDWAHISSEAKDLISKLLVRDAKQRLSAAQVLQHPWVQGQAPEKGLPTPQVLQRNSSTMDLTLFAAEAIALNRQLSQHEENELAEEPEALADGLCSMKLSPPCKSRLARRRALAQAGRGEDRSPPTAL

NEK2 (human) = NEK2 (human) (UniProt P51955)
Chain of NEK2 (human) (P51955 whole entry, looked up): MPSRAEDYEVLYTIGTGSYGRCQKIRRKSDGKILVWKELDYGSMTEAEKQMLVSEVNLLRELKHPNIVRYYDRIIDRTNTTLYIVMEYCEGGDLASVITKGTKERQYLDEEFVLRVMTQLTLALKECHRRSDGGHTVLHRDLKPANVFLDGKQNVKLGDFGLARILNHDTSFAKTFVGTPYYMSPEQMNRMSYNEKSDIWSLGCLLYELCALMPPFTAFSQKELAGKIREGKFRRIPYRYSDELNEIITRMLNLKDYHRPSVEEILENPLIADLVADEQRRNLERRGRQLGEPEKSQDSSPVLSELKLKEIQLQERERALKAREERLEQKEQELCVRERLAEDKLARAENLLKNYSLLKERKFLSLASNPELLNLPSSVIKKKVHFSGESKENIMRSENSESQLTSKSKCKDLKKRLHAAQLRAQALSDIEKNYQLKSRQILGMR

STK33 (human) = STK33 (human) (UniProt Q9BYT3)
STK39 (human) = STK39 (human) (UniProt Q9UEW8)
PRKCB1 (human) = PRKCB1 (human) (UniProt P05771)
PKN1 (human) = PKN1 (human) (UniProt Q16512)
GRK6 (human) = GRK6 (human) (UniProt P43250)
MST4 (human) = MST4 (human) (UniProt Q9P289)
Chain of MST4 (human) (Q9P289 whole entry, looked up): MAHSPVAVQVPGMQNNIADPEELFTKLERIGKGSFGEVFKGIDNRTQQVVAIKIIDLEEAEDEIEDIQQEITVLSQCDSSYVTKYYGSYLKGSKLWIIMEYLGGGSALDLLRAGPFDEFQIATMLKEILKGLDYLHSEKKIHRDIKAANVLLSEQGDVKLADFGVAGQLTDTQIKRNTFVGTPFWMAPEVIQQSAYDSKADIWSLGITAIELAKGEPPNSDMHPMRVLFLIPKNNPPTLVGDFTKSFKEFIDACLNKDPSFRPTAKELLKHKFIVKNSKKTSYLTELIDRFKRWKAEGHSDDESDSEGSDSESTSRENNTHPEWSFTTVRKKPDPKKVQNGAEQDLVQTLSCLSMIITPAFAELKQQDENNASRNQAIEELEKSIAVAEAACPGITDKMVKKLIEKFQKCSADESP

BRSK1 (human) = BRSK1 (human) (UniProt Q8TDC3)
NEK9 (human) = NEK9 (human) (UniProt Q8TD19)
CHEK1 (human) = CHEK1 (human) (UniProt O14757)
FGFR2 (human) = FGFR2 (human) (UniProt P21802)
MAP3K2 (human) = MAP3K2 (human) (UniProt Q9Y2U5)
CSF1R (human) = CSF1R (human) (UniProt P07333)
FLT1 (human) = FLT1 (human) (UniProt P17948)
SIK2 (human) = SIK2 (human) (UniProt Q9H0K1)
TYRO3 (human) = TYRO3 (human) (UniProt Q06418)
DAPK3 (human) = DAPK3 (human) (UniProt O43293)
Chain of DAPK3 (human) (O43293 whole entry, looked up): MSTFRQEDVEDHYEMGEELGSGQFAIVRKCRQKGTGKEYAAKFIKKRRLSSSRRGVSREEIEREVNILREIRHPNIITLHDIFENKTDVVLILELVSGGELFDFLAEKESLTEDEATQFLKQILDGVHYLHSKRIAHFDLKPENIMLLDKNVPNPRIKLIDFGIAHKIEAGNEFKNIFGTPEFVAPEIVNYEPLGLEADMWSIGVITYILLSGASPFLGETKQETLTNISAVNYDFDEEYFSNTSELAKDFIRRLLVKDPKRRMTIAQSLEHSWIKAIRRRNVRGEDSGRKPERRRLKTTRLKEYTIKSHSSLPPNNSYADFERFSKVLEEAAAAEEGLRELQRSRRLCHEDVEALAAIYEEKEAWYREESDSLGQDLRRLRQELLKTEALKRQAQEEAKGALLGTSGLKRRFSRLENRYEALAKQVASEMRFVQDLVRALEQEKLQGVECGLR

STK11 (human) = STK11 (human) (UniProt Q15831)
Chain of STK11 (human) (Q15831 whole entry, looked up): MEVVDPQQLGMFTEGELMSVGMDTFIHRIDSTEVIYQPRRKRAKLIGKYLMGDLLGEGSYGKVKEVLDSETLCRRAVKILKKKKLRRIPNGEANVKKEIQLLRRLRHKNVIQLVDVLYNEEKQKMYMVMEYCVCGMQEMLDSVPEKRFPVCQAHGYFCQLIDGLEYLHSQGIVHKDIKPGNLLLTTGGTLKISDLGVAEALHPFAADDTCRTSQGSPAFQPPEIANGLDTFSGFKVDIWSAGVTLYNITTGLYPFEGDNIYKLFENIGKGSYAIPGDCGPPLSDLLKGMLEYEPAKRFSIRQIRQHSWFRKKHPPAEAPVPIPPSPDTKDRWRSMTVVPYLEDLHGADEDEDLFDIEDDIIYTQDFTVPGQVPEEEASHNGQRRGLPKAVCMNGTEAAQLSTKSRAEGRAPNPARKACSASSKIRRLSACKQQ

MINK1 (human) = MINK1 (human) (UniProt Q8N4C8)
MAPK1 (human) = MAPK1 (human) (UniProt P28482)
TAOK2 (human) = TAOK2 (human) (UniProt Q9UL54)
MARK4 (human) = MARK4 (human) (UniProt Q96L34)
Chain of MARK4 (human) (Q96L34 whole entry, looked up): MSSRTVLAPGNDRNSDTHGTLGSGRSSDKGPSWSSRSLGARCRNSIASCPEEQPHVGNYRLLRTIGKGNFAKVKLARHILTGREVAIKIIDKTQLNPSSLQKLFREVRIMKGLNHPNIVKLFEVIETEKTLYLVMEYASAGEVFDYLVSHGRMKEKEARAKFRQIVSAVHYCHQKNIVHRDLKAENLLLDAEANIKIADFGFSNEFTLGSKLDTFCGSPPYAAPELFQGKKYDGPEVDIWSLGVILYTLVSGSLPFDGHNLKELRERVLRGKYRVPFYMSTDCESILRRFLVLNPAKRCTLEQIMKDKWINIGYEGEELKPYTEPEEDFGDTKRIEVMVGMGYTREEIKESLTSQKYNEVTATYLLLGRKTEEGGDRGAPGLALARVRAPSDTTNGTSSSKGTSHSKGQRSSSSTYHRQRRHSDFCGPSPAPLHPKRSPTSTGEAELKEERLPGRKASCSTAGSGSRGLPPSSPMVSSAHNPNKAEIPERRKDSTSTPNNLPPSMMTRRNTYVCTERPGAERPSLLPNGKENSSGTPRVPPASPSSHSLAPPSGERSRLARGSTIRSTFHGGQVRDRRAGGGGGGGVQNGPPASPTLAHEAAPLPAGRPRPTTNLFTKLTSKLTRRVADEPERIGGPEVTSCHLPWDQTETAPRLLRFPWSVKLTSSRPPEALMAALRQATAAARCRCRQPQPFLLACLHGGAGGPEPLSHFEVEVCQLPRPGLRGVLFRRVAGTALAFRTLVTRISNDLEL

MARK1 (human) = MARK1 (human) (UniProt Q9P0L2)
PRKCH (human) = PRKCH (human) (UniProt P24723)
CSNK1G3 (human) = CSNK1G3 (human) (UniProt Q9Y6M4)
NEK7 (human) = NEK7 (human) (UniProt Q8TDX7)
CHUK (human) = CHUK (human) (UniProt O15111)
MAP3K8 (human) = MAP3K8 (human) (UniProt P41279)
GSK3B (human) = GSK3B (human) (UniProt P49841)
SRMS (human) = SRMS (human) (UniProt Q9H3Y6)
Chain of SRMS (human) (Q9H3Y6 whole entry, looked up): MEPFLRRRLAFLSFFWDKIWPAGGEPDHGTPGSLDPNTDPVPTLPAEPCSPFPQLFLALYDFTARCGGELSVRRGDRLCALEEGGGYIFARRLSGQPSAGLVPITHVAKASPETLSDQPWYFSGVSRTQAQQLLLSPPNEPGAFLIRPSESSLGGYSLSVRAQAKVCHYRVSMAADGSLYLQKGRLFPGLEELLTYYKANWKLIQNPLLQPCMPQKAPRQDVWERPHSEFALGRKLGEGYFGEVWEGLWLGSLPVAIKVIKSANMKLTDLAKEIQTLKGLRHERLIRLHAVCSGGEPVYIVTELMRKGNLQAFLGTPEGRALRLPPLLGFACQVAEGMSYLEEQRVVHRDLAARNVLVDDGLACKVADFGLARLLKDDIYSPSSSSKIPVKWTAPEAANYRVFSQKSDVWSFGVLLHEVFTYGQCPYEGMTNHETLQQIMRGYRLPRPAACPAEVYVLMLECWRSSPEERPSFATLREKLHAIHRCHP

CAMKK2 (human) = CAMKK2 (human) (UniProt Q96RR4)
ROCK1 (human) = ROCK1 (human) (UniProt Q13464)
Chain of ROCK1 (human) (Q13464 whole entry, looked up): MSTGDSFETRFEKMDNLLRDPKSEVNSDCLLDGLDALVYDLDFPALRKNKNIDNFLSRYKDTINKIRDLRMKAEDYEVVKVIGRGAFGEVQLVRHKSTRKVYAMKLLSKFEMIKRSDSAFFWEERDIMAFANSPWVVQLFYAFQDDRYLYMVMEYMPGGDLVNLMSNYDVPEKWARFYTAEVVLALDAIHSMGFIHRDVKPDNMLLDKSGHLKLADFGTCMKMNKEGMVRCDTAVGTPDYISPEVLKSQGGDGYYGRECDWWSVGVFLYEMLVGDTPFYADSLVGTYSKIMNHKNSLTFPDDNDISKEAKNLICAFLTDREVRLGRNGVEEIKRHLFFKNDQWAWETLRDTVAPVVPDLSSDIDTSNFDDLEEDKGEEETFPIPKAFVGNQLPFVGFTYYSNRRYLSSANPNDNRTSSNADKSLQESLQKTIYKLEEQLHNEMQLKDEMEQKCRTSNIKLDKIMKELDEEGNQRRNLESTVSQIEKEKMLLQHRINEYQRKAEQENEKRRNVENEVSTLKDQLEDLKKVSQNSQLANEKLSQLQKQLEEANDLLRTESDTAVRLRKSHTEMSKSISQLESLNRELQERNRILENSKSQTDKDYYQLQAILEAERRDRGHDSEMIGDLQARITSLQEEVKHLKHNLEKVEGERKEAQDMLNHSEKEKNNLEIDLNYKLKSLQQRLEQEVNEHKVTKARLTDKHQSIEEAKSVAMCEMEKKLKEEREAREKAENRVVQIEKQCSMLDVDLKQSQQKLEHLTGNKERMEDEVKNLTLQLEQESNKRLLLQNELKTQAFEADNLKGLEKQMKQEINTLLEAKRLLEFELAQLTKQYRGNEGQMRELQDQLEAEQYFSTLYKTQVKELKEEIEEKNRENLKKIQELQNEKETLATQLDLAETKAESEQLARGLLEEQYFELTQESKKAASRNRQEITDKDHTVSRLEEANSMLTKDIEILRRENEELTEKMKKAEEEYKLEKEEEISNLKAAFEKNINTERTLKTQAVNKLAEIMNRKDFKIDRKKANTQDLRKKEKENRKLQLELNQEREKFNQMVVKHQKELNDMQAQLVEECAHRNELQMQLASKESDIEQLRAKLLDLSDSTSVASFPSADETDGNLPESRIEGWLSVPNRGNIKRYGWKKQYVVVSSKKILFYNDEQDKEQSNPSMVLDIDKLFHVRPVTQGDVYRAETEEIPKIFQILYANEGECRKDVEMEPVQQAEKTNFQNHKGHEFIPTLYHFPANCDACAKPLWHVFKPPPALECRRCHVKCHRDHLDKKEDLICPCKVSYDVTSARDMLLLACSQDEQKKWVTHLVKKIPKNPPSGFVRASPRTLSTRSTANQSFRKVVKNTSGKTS

MAPK12 (human) = MAPK12 (human) (UniProt P53778)
PIM3 (human) = PIM3 (human) (UniProt Q86V86)
KIT (human) = KIT (human) (UniProt P10721)
EPHB3 (human) = EPHB3 (human) (UniProt P54753)
EGFR (human) = EGFR (human) (UniProt P00533)

residual activity (RPS6KA4 KD1 KD2 (human)): 90.5%
residual activity (PAK2 (human)): 97.5%
residual activity (STK3 (human)): 90%
residual activity (AURKC (human)): 101%
residual activity (KDR (human)): 104%
residual activity (CDK1 CCNB1 (human)): 99%
residual activity (MKNK1 (human)): 97%
residual activity (NEK2 (human)): 103%
residual activity (STK33 (human)): 94.5%
residual activity (STK39 (human)): 95.5%
residual activity (PRKCB1 (human)): 102%
residual activity (PKN1 (human)): 89%
residual activity (GRK6 (human)): 104%
residual activity (MST4 (human)): 98%
residual activity (BRSK1 (human)): 99.5%
residual activity (CHEK1 (human)): 79%
residual activity (FGFR2 (human)): 98.5%
residual activity (MAP3K2 (human)): 100%
residual activity (CSF1R (human)): 95%
residual activity (FLT1 (human)): 97.5%
residual activity (SIK2 (human)): 108%
residual activity (TYRO3 (human)): 94.5%
residual activity (DAPK3 (human)): 106%
residual activity (STK11 (human)): 106%
residual activity (MINK1 (human)): 106%
residual activity (MAPK1 (human)): 95%
residual activity (TAOK2 (human)): 103%
residual activity (MARK4 (human)): 83%
residual activity (MARK1 (human)): 95.5%
residual activity (PRKCH (human)): 103%
residual activity (CSNK1G3 (human)): 98%
residual activity (NEK7 (human)): 99.5%
residual activity (CHUK (human)): 93%
residual activity (MAP3K8 (human)): 95.5%
residual activity (GSK3B (human)): 96%
residual activity (SRMS (human)): 93.5%
residual activity (CAMKK2 (human)): 98%
residual activity (ROCK1 (human)): 96%
residual activity (MAPK12 (human)): 97.5%
residual activity (PIM3 (human)): 93.5%
residual activity (KIT (human)): 99%
residual activity (EPHB3 (human)): 92.5%
residual activity (EGFR (human)): 96.5%
Structure (SMILES): CC[C@H](C)n1cc(C)c2c(C(=O)NCc3c(C)cc(C)[nH]c3=O)cc(-c3ccc(N4CCNCC4)nc3)cc21
residual activity (NEK9 (human)): 102%
